Structures can show the parent of a compound that is named as a salt. Marks after values point to notes of the source that are not given here.
How the values were obtained:
COL1A1 promotor = COL1A1 promotor luciferase reporter gene assay in TGF-β1-treated LX-2 cells; assay type: cell-based, human; conditions: for inhibition at 40 µM / inhibition at 80 µM: LX-2, 24 h; for inhibition at 40 µM: 24 h with TGF-β1, read-out: Inhibition Percentage 40 μM (inhibition rate of COL1A1 promotor's activity); for inhibition at 80 µM: 24 h with TGF-β1, read-out: Inhibition Percentage 80 μM (inhibition rate of COL1A1 promotor's activity)
Description: A single luciferase reporter gene detection model was applied to evaluate the inhibitory effects of all target compounds on the expression of COL1A1 promotor in human hepatic stellate LX-2 cells at the concentrations of 40 and 80 μM, taking EGCG as the positive control. The LX-2 cell lines were transfected with COL1A1 promotor luciferase plasmid pGL4.17-COL1A1P for 24 h, then simultaneously treated with TGF-β1 and a tested compound for 24 h.
(§1) Cells were maintained on Dulbecco’s Modified Eagle’s medium (DMEM), laid on 96-well plate. DMEM medium was supplemented with 10% fetal bovine serum (FBS) at 37 °C humidified atmosphere with 5% CO2. Furthermore, serum-free culture was required until the cells were confluent at 90−95%. 24 h later the cells were treated with a tested compound (40 and 80 μM) for 24 h. The COL1A1 promotor activity was detected by the Bright-Glo luciferase assay system. Alternatively, to test the acute effects of compound on luciferase activity, 24 h later the cells were lysed and the lysate was treated with a tested compound (80 μM) for 2 h, then the luciferase was detected by the Bright-Glo luciferase assay system (Promega, Madison, WI, USA).

luciferase = biological target: T1, luciferase (Photinus pyralis, UniProt P08659, K549A/L550V/N119G/N50D/S548I); assay: Acute effect on luciferase activity (cell lysate, 2 h); assay type: biochemical; conditions: 80 μM, 2-h treatment
T1 construct: expressed in transfected cells; host or cells: human hepatic stellate LX-2 cells transfected with pGL4.17-COL1A1P; lysate used
T1 sequence (P08659 whole entry N50D/N119G/S548I/K549A/L550V): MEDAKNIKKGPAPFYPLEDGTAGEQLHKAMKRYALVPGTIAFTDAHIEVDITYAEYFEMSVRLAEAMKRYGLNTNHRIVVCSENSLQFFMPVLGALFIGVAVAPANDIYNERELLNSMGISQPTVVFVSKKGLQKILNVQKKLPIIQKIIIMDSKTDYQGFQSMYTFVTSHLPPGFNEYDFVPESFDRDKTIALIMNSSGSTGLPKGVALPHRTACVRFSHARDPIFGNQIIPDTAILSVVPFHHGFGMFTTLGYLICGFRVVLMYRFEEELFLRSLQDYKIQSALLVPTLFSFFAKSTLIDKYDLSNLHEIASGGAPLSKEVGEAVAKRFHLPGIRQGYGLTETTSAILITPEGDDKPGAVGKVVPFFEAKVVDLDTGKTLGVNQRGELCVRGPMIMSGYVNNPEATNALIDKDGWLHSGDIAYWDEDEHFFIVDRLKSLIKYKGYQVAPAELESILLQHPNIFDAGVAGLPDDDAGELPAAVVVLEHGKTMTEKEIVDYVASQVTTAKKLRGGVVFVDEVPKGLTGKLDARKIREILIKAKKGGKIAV
Description: Then, their anti-COL1A1 potencies were verified by testing the half maximal inhibition concentration (IC50) values upon COL1A1 expression expression in LX-2 cells. […] Then, compounds 4i, 4n and 4p with the lower IC50 values were selected as the key compounds for further studies.
as §1

[1] = LX-2 cell survival, sulforhodamine B (SRB) assay; assay type: cell-based; conditions: human, LX-2 cells
Description: LX-2 cell survival was measured by sulforhodamine B (SRB) assay. The cells were seeded in 96-well plates at the density of 2 × 10^4/well and cultured in DMEM/GlutaMAX I medium with 10% fetal bovine serum (FBS) with 5% CO2, 37 °C. The cells were treated by the aloperine derivates for 24 h, washed by PBS for three times. Then the cells were fixed with 10% (wt/vol) trichloroacetic acid for 1 h and stained with SRB for 0.5 h. Subsequently, the protein-bound dye was dissolved in 10 mM Tris base solution after removing excess SRB dye washing repeatedly with 1% (vol/vol) acetic acid, the optical density (OD) was determined at 510 nm with a microplate reader.

[2] = HepG2 cell survival, MTT assay; assay type: cell-based; conditions: human, HepG2 cells
Description: HepG2 cell survival was measured by MTT assay. HepG2 cells, at density of 6x10^3 cells/well in 96-well culture plates, were incubated with the aloperine derivates at various concentrations until the cells at 50% confluence for 24 h. 20 µL of the MTT (5 mg/mL) solution was added to each plate and incubated with 5% CO2, 37 °C for 4 h. Subsequently, withdrawing the culture supernatant containing MTT, 150 µL DMSO was used for dissolving the formazan crystal. The absorbance was measured using a microplate reader at 570 nm.

melting point [°C]	SMILES	inhibition at 40 µM (COL1A1 promotor; Homo sapiens) [%]	inhibition at 80 µM (COL1A1 promotor; Homo sapiens) [%]	Inhibition Percentage (inhibition rate of COL1A1 promotor's activity) (COL1A1 promotor; at the concentration of 25 μM (positive control))	IC50 (COL1A1 promotor; Homo sapiens, read-out: IC50 (concentration required to inhibit 50% of COL1A1 promotor's activity)) [µM]	Acute effect on luciferase activity (luciferase)	CC50 at 24 h [1] [µM]	CC50 at 24 h [2] [µM]
176 to 178	O=C(CN1CCCC2=C[C@H]3C[C@H](CN4CCCC[C@H]34)[C@@H]21)NC12CC3CC(CC(C3)C1)C2 [4c, 12N-N′-Adamantylcarbamoylmethyl aloperine]	23.7 ± 7.7	39.2 ± 1.2					
40 to 42	Cc1cccc(NC(=O)CN2CCCC3=C[C@H]4C[C@H](CN5CCCC[C@H]45)[C@@H]32)c1 [4f, 12N-N′-(3-Methylphenyl)carbamoylmethyl aloperine]	21.2 ± 0.4	33.8 ± 8					
105 to 107	O=C(CN1CCCC2=C[C@H]3C[C@H](CN4CCCC[C@H]34)[C@@H]21)NS(=O)(=O)c1cccc(C(F)(F)F)c1 [7b, 12N-N′-3-Trifluoromethylbenzenesulfonyl carbamoylmethyl aloperine]	23.5 ± 13.5	20.2 ± 1.9					
74 to 76	O=C(CN1CCCC2=C[C@H]3C[C@H](CN4CCCC[C@H]34)[C@@H]21)Nc1cccc2ncccc12 [4l, 12N-N′-(5-Quinolyl)carbamoylmethyl aloperine]	31.5 ± 2.6	22.4 ± 16.1					
91 to 93	O=C(CNS(=O)(=O)c1cccc(C(F)(F)F)c1)N1CCCC2=C[C@H]3C[C@H](CN4CCCC[C@H]34)[C@@H]21 [10e, 12N-N′-m-Trifluoromethylbenzenesulfonylaminoacetyl aloperine]	29.7 ± 5.1	26.7 ± 21.3					
63 to 65	O=C(CNS(=O)(=O)c1ccccc1)N1CCCC2=C[C@H]3C[C@H](CN4CCCC[C@H]34)[C@@H]21 [10c, 12N-N′-Benzenesulfonylaminoacetylaloperine]	23.7 ± 8.3	20.2 ± 6.4					
78 to 80	O=C(CN1CCCC2=C[C@H]3C[C@H](CN4CCCC[C@H]34)[C@@H]21)N1CCCC1 [4o, 12N-N′-(1-Pyrrolidinyl)carbamoylmethyl aloperine]	16.5 ± 9.8	36.7 ± 9.9					
98 to 100	CCCCS(=O)(=O)NCC(=O)N1CCCC2=C[C@H]3C[C@H](CN4CCCC[C@H]34)[C@@H]21 [10b, 12N-N′-n-Butylsulfonylaminoacetyl aloperine]	41.1 ± 9.6	23.7 ± 22.7					
50 to 52	O=C(CN1CCCC2=C[C@H]3C[C@H](CN4CCCC[C@H]34)[C@@H]21)Nc1cccc(OC(F)(F)F)c1 [4g, 12N-N′-(m-Trifluoromethoxyphenyl)carbamoylmethyl aloperine]	67.8 ± 14.9	95.5 ± 5.5					
75 to 77	COC(=O)c1ccc(C)c(NC(=O)CN2CCCC3=C[C@H]4C[C@H](CN5CCCC[C@H]45)[C@@H]32)c1 [4j, 12N-N′-(2-Methyl-5-methoxycarbonylphenyl)carbamoylmethyl aloperine]	3.8 ± 6.1	32.4 ± 2.7					
93 to 95	O=C(CN1CCCC2=C[C@H]3C[C@H](CN4CCCC[C@H]34)[C@@H]21)NS(=O)(=O)c1ccc2ccccc2c1 [7d]	18.8 ± 5.2	9.4 ± 3.7					
	O=C(O[C@@H]1Cc2c(O)cc(O)cc2O[C@@H]1c1cc(O)c(O)c(O)c1)c1cc(O)c(O)c(O)c1 [EGCG, reference compound]			27.5 ± 7.9^e %				
199 to 201	O=C(CN1CCCC2=C[C@H]3C[C@H](CN4CCCC[C@H]34)[C@@H]21)NC1CCOCC1 (as salt: hydrochloride) [4b, 12N-N′-(Tetrahydro-2H-pyran-4-yl)carbamoylmethyl aloperine hydrochloride]							
79 to 81	O=C(CN1CCCC2=C[C@H]3C[C@H](CN4CCCC[C@H]34)[C@@H]21)NS(=O)(=O)c1ccc(Br)c(C(F)(F)F)c1 [7c, 12N-N′-(4-Bromo-3-trifluoromethylbenzenesulfonyl)carbamoylmethyl aloperine]	32.9 ± 3.4	31.8 ± 3.1					
69 to 71	CCNC(=O)CN1CCCC2=C[C@H]3C[C@H](CN4CCCC[C@H]34)[C@@H]21 [4a, 12N-N′-Ethylcarbamoylmethyl aloperine]	7.1 ± 25.6	33.1 ± 1.6					
113 to 115	O=C(CN1CCCC2=C[C@H]3C[C@H](CN4CCCC[C@H]34)[C@@H]21)NS(=O)(=O)c1ccccc1 [7a, 12N-N′-Benzenesulfonyl carbamoylmethyl aloperine]	21.5 ± 4.3	17.1 ± 6.3					
183 to 185	Cc1cc(NC(=O)CN2CCCC3=C[C@H]4C[C@H](CN5CCCC[C@H]45)[C@@H]32)cc(C)c1C [4k, 12N-N′-(3,4,5-Trimethylphenyl)carbamoylmethyl aloperine]	50.1 ± 6.9	70.7 ± 1.5					
73 to 75	CN(C(=O)CN1CCCC2=C[C@H]3C[C@H](CN4CCCC[C@H]34)[C@@H]21)c1ccccc1 [4m]	19.9 ± 5.2	34.6 ± 2.5					
101 to 103	O=C(CNS(=O)(=O)c1cccc(Br)c1)N1CCCC2=C[C@H]3C[C@H](CN4CCCC[C@H]34)[C@@H]21 [10d, 12N-N′-m-Bromobenzenesulfonylaminoacetyl aloperine]	28.5 ± 12.3	27.1 ± 10.1					
	O=C(CN1CCCC2=C[C@H]3C[C@H](CN4CCCC[C@H]34)[C@@H]21)NC1CCOCC1 [4b, 12N-N′-(Tetrahydro-2H-pyran-4-yl)carbamoylmethyl aloperine hydrochloride]	19 ± 3.8	29.8 ± 10					
81 to 83	O=C(CNS(=O)(=O)c1cccc(OC(F)(F)F)c1)N1CCCC2=C[C@H]3C[C@H](CN4CCCC[C@H]34)[C@@H]21 [10f, 12N-N′-m-Trifluoromethoxybenzenesulfonylaminoacetyl aloperine]	43.4 ± 15.9	41.4 ± 7.4					
	C1=C2CCCN[C@H]2[C@@H]2C[C@H]1[C@H]1CCCCN1C2 [compound 1, Aloperine]	4.7 ± 3.7	2.6 ± 5.2					
145 to 147	CCS(=O)(=O)NCC(=O)N1CCCC2=C[C@H]3C[C@H](CN4CCCC[C@H]34)[C@@H]21 [10a, 12N-N′-Ethylsulfonylaminoacetyl aloperine]	34 ± 7	34.9 ± 14.7					
66 to 68	O=C(CN1CCCC2=C[C@H]3C[C@H](CN4CCCC[C@H]34)[C@@H]21)Nc1ccccc1 [4d, 12N-N′-Phenylcarbamoylmethyl aloperine]	18.6 ± 8.6	28.3 ± 2.8					
119 to 121	O=C(CN1CCCC2=C[C@H]3C[C@H](CN4CCCC[C@H]34)[C@@H]21)Nc1ccc(F)cc1 [4e, 12N-N′-(4-Fluorophenyl)carbamoylmethyl aloperine]	21.4 ± 1.5	26.5 ± 0.5					

SMILES	melting point [°C]	inhibition at 40 µM (COL1A1 promotor; Homo sapiens) [%]	inhibition at 80 µM (COL1A1 promotor; Homo sapiens) [%]	Inhibition Percentage (inhibition rate of COL1A1 promotor's activity) (COL1A1 promotor; at the concentration of 25 μM (positive control))	IC50 (COL1A1 promotor; Homo sapiens, read-out: IC50 (concentration required to inhibit 50% of COL1A1 promotor's activity)) [µM]	Acute effect on luciferase activity (luciferase)	CC50 at 24 h [1] [µM]	CC50 at 24 h [2] [µM]
O=C(CNS(=O)(=O)c1cc(C(F)(F)F)cc(C(F)(F)F)c1)N1CCCC2=C[C@H]3C[C@H](CN4CCCC[C@H]34)[C@@H]21 [10g, 12N-N′-(3,5-Ditrifluoromethyl)benzenesulfonylaminoacetyl aloperine]	78 to 80	48.4 ± 24.7	84 ± 0.5		27.6 ± 3	minimal inhibition	68.6 ± 11.7	113 ± 3.4

Source: paper PMC7663597, “Structure–Activity Relationship of Aloperine Derivatives as New Anti–Liver Fibrogenic Agents” (Molecules, 2020)
